Measured values: ChEMBL document CHEMBL1201862, “PubChem BioAssay data set” (2004)
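Each compound was tested at five concentrations against cells in 96-well plates for 48 hours. The concentration for 50% growth inhibition is given as GI50.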 Active and inactive are the calls of the source. Rule as the data show it: active = GI50 up to about 1.1 µM and inactive = higher.

Tests used:
Test in all cases: NCI tumour cell line growth inhibition, 48 h
HCC 2998 = test system: HCC 2998
OVCAR-8 = test system: OVCAR-8
M14 = test system: M14
SF-295 = test system: SF-295
IGROV-1 = test system: IGROV-1
A549 = test system: A549
SN12C = test system: SN12C
HCT-116 = test system: HCT-116
HT-29 = test system: HT-29
NCI-H522 = test system: NCI-H522
HOP-92 = test system: HOP-92
HL-60 = test system: HL-60
MDA-MB-231 = test system: MDA-MB-231
EKVX = test system: EKVX
MOLT-4 = test system: MOLT-4
K562 = test system: K562
UACC-257 = test system: UACC-257
SK-MEL-2 = test system: SK-MEL-2
SF-539 = test system: SF-539

Row | SMILES | GI50 (HCC 2998) | GI50 (OVCAR-8) | GI50 (M14) | GI50 (SF-295) | GI50 (IGROV-1) | GI50 (A549) | GI50 (SN12C) | GI50 (HCT-116) | GI50 (HT-29) | GI50 (NCI-H522) | GI50 (HOP-92) | GI50 (HL-60) | GI50 (MDA-MB-231) | GI50 (EKVX) | GI50 (MOLT-4) | GI50 (K562) | GI50 (UACC-257) | GI50 (SK-MEL-2) | GI50 (SF-539)
1 | [O-][n+]1ccccc1Sc1nc(Sc2cccc[n+]2[O-])nc(Sc2cccc[n+]2[O-])n1 | 1.51 µM (inactive) | 0.569 µM (active) | 1.26 µM (inactive) | 3.14 µM (inactive) | 0.54 µM (active) | 2.99 µM (inactive) | 1.81 µM (inactive) | 1.25 µM (inactive) | 1.19 µM (inactive) | 0.745 µM (active) | 1.28 µM (inactive) | 0.1 µM (active) | 1.38 µM (inactive) | 2.34 µM (inactive) | 0.189 µM (active) | 0.279 µM (active) | 2.4 µM (inactive) | 1.8 µM (inactive) | 2.06 µM (inactive)
2 | Cc1cccc(C2ON=C(c3ccccc3)N2C23CC4CC(CC(C4)C2)C3)c1 (stereo not given) | > 10 µM (inactive) | > 10 µM (inactive) | > 10 µM (inactive) | > 10 µM (inactive) | > 10 µM (inactive) | > 10 µM (inactive) | > 10 µM (inactive) | > 10 µM (inactive) | > 10 µM (inactive) | > 10 µM (inactive) | > 10 µM (inactive) | > 10 µM (inactive) | > 10 µM (inactive) | > 10 µM (inactive) | > 10 µM (inactive) | > 10 µM (inactive) | > 10 µM (inactive) | > 10 µM (inactive) | > 10 µM (inactive)
3 | COc1ccc(/C=C2\CCC(C)C3=C2NC(=S)NC3c2ccc(OC)c(OC)c2)cc1OC (stereo not given) | 74.1 µM (inactive) | 26.1 µM (inactive) | 19.5 µM (inactive) | 12 µM (inactive) | 13.6 µM (inactive) | 16.9 µM (inactive) | 24.9 µM (inactive) | 15.3 µM (inactive) | 26 µM (inactive) | > 100 µM (inactive) | 36.1 µM (inactive) | 3.6 µM (inactive) | 18.2 µM (inactive) | 20.1 µM (inactive) | 4.99 µM (inactive) | 3.99 µM (inactive) | > 31.6 µM (inactive) | 26.5 µM (inactive) | 27.2 µM (inactive)
4 | O=C(NO)c1ccc(OCc2ccccc2)cc1 | 22.6 µM (inactive) | 6.71 µM (inactive) | 47.6 µM (inactive) | 26.2 µM (inactive) | 14.3 µM (inactive) | 33 µM (inactive) | 43.4 µM (inactive) | 12.1 µM (inactive) | 29.2 µM (inactive) | 9.62 µM (inactive) | 33.5 µM (inactive) | 16 µM (inactive) | 26.8 µM (inactive) | 20.7 µM (inactive) | 15.3 µM (inactive) | 37.7 µM (inactive) | 29.4 µM (inactive) | 30.3 µM (inactive) | 28.7 µM (inactive)
5 | C(=N\NC1=NCCCN1)/c1ccc(-c2cn3cc(/C=N/NC4=NCCCN4)ccc3n2)cc1 | > 53.3 µM (inactive) | > 50.2 µM (inactive) | > 81.1 µM (inactive) | > 100 µM (inactive) | 50.6 µM (inactive) | 24.6 µM (inactive) | > 100 µM (inactive) | > 88.3 µM (inactive) | 29.3 µM (inactive) | > 100 µM (inactive) | 59 µM (inactive) | 20.7 µM (inactive) | > 72.6 µM (inactive) | 45.9 µM (inactive) | 5.73 µM (inactive) | 38.4 µM (inactive) | > 100 µM (inactive) | > 100 µM (inactive) | > 61.7 µM (inactive)
6 | CC(C)COP(=O)(OCC(C)C)C(NS(=O)(=O)c1ccccc1)(C(F)(F)F)C(F)(F)F | 5.13 µM (inactive) | 6.46 µM (inactive) | 12.8 µM (inactive) | 5.6 µM (inactive) | 4.41 µM (inactive) | 3.82 µM (inactive) | 3.22 µM (inactive) | 5.24 µM (inactive) | 4.44 µM (inactive) | 4.05 µM (inactive) | 2.2 µM (inactive) | 1.22 µM (inactive) | 2.04 µM (inactive) | 4.91 µM (inactive) | 1.41 µM (inactive) | 4.8 µM (inactive) | 4.24 µM (inactive) | 3.4 µM (inactive) | 8.34 µM (inactive)
7 | Oc1ccc(NCc2cc(O)ccc2O)cc1 | 16.9 µM (inactive) | 25.8 µM (inactive) | 17.8 µM (inactive) | 20.7 µM (inactive) | 16.4 µM (inactive) | 53.1 µM (inactive) | 15.3 µM (inactive) | 15.3 µM (inactive) | 22.6 µM (inactive) | 2.06 µM (inactive) | 13.1 µM (inactive) | 3.03 µM (inactive) | 13.2 µM (inactive) | 15.7 µM (inactive) | 3.07 µM (inactive) | 19.2 µM (inactive) | 14.9 µM (inactive) | 18.2 µM (inactive) | 23.2 µM (inactive)
8 | O=C1C(N2CCCC2)=CC(=O)c2c(O)c(N3CCCC3)c(Cl)c(O)c21 | > 10 µM (inactive) | – | > 10 µM (inactive) | > 10 µM (inactive) | > 10 µM (inactive) | > 10 µM (inactive) | > 10 µM (inactive) | > 10 µM (inactive) | > 10 µM (inactive) | > 10 µM (inactive) | > 10 µM (inactive) | > 10 µM (inactive) | > 10 µM (inactive) | > 10 µM (inactive) | > 10 µM (inactive) | > 10 µM (inactive) | > 10 µM (inactive) | > 10 µM (inactive) | > 10 µM (inactive)
9 | c1ccc(/N=c2/sc3ccccc3s/c2=N/c2ccccc2)cc1 | 1.84 µM (inactive) | 1.89 µM (inactive) | – | 3.76 µM (inactive) | 1.62 µM (inactive) | 2.54 µM (inactive) | 1.75 µM (inactive) | 1.72 µM (inactive) | 2.08 µM (inactive) | 1.56 µM (inactive) | 2 µM (inactive) | 6.41 µM (inactive) | 2.21 µM (inactive) | 2.76 µM (inactive) | 5.18 µM (inactive) | 3.78 µM (inactive) | 3.72 µM (inactive) | 1.86 µM (inactive) | 1.88 µM (inactive)
10 | CC1=NN=C(C)C1/N=N/c1ccc2[nH]c(C)nc2c1 | 58.7 µM (inactive) | 15.9 µM (inactive) | 23.1 µM (inactive) | 17.9 µM (inactive) | 5.62 µM (inactive) | 27.4 µM (inactive) | > 52 µM (inactive) | 10.9 µM (inactive) | 16 µM (inactive) | 6.95 µM (inactive) | 14.8 µM (inactive) | 10.8 µM (inactive) | 28.6 µM (inactive) | 18.7 µM (inactive) | 13.7 µM (inactive) | > 69.2 µM (inactive) | 47.6 µM (inactive) | 8.07 µM (inactive) | 26.9 µM (inactive)
11 | NC1=NN(c2ccccc2)C2(O)c3ccncc3C3=NN(c4ccccc4)C(=O)C132 (stereo not given) | > 100 µM (inactive) | > 100 µM (inactive) | > 100 µM (inactive) | > 100 µM (inactive) | > 100 µM (inactive) | > 100 µM (inactive) | > 100 µM (inactive) | > 100 µM (inactive) | > 100 µM (inactive) | > 100 µM (inactive) | > 100 µM (inactive) | > 100 µM (inactive) | > 100 µM (inactive) | > 100 µM (inactive) | > 100 µM (inactive) | > 100 µM (inactive) | > 100 µM (inactive) | > 100 µM (inactive) | > 100 µM (inactive)
12 | O=C(O)c1cc2ccccc2c(O)c1O | 18.8 µM (inactive) | 12.6 µM (inactive) | 4.79 µM (inactive) | 15.3 µM (inactive) | 20.2 µM (inactive) | 19.8 µM (inactive) | 16.6 µM (inactive) | 16.8 µM (inactive) | 23.2 µM (inactive) | 15.1 µM (inactive) | > 40.1 µM (inactive) | 19.4 µM (inactive) | 17.7 µM (inactive) | 23.4 µM (inactive) | 27.5 µM (inactive) | 8.09 µM (inactive) | 9.68 µM (inactive) | 1.03 µM (active) | 22.8 µM (inactive)
13 | CCOP(=O)(OCC)/C(C#N)=C/c1c[nH]c2ccccc12 | > 100 µM (inactive) | > 100 µM (inactive) | > 100 µM (inactive) | > 100 µM (inactive) | > 100 µM (inactive) | > 100 µM (inactive) | > 100 µM (inactive) | > 100 µM (inactive) | > 100 µM (inactive) | > 100 µM (inactive) | > 100 µM (inactive) | > 100 µM (inactive) | > 100 µM (inactive) | > 100 µM (inactive) | – | > 100 µM (inactive) | > 100 µM (inactive) | > 100 µM (inactive) | > 100 µM (inactive)
14 | Cc1ccc(NC2=NCCO2)c2c1CCC2 | 32 µM (inactive) | 35.1 µM (inactive) | 21 µM (inactive) | > 100 µM (inactive) | 40 µM (inactive) | 41.7 µM (inactive) | 45 µM (inactive) | 15.3 µM (inactive) | 33.3 µM (inactive) | 45.8 µM (inactive) | 27.3 µM (inactive) | 16.7 µM (inactive) | 19.7 µM (inactive) | 48.4 µM (inactive) | 33.9 µM (inactive) | 26.7 µM (inactive) | – | 20 µM (inactive) | 22 µM (inactive)
15 | COc1ccc2nc(-c3cccc(N(C)C)c3)cc(O)c2c1 | 0.608 µM (active) | 0.186 µM (active) | – | 0.246 µM (active) | 0.553 µM (active) | 0.147 µM (active) | 0.353 µM (active) | 0.101 µM (active) | 0.198 µM (active) | 0.204 µM (active) | 0.469 µM (active) | 0.187 µM (active) | 0.594 µM (active) | 1.55 µM (inactive) | 0.344 µM (active) | 0.242 µM (active) | 0.485 µM (active) | 0.314 µM (active) | 0.151 µM (active)
